Consider two compounds from PMC7724566, “Prospects for Clinical Development of Stat5 Inhibitor IST5-002: High Transcriptomic Specificity in Prostate Cancer and Low Toxicity In Vivo” (Cancers, 2020).

By IC50 is commonly meant the concentration at which inhibition is half-maximal.

Experiment [1] concerns Stat5. In words: Stat5 phosphorylation in K562 cells (immunoblot). It counts as cell-based, human. Conditions: 4 days. The method, then:
(§1) In order to evaluate whether the phosphate group of IST5 is critical for IST5 activity in cell-based assays, we compared the potency of IST5 (Figure 4A) to that of IST5-M (IST5 without the phosphate group) (Figure 4B) in inhibiting phosphorylation of Stat5 in PC and CML cells. CML (K562) cells and PC (CWR22Rv1) cells were cultured for 4 days with increasing concentrations of IST5 and IST5-M (Figure 4C,D). […] Collectively, these finding indicate that IST5 and IST5-M have similar efficacies in inhibiting phosphorylation of Stat5 in both CML and PC cells.
(§2) Figure 4 IST5 and the IST5-derivative lacking the phosphate group (IST5-M), both, inhibit Stat5 phosphorylation in CML and prostate cancer cell line with high efficacy. (A), chemical structure of IST5-002 (IST5). (B), chemical structure of IST5-M (IST5 without the phosphate group. (C), IST5 and IST5-M both inhibit Stat5 phosphorylation in CML cells (K562) with high efficacy. K562 cells were treated with IST5 and IST5-M for 4 days at the concentrations indicated. Whole cell lysates (WCL) were immunoblotted with anti-pYStat5 mAb, anti-Stat5 mAb and anti-actin mAb as loading control. (D), IST5 and IST5-M, both, decrease Stat5 phosphorylation in PC cells (CWR22Rv1). CWR22Rv1 cells were treated with increasing concentrations of IST5 and IST5-M for 4 days. Stat5 was immunoprecipitated (IP) followed by immunoblotting (WB) with anti-pYStat5 mAb and anti-Stat5 mAb. Whole cell lysates (WCL) were immunoblotted with anti-actin mAb as loading control.
(§3) Cell pellets were solubilized in the lysis buffer (10 mM Tris-HCl (pH 7.6), 5 mM EDTA, 50 mM sodium chloride, 30 mM sodium pyrophosphate, 50 mM sodium fluoride, 1 mM sodium orthovanadate, 1% Triton X-100, 1 mM phenylmethylsulfonyl fluoride, 5 µg/mL aprotinin, 1 µg/mL pepstatin A and 2 µg/mL leupeptin), and protein concentrations of clarified cell lysates were determined by a simplified Bradford method (Bio-Rad, Hercules, CA, USA). The whole cell lysates were immunoprecipitated with polyclonal antibodies (Table S1) followed by incubation with protein A-Sepharose beads (GE Healthcare, Chicago, IL, USA). The cell lysates and immunoprecipitated proteins were separated on 4–12% SDS-PAGE (Life Technologies, Brown Deer, WI, USA) and transferred electrophoretically to polyvinylidene fluoride membrane (Millipore). For immunoblotting, blocking buffer was tris-buffered saline and tween 20 (TBST, 0.15 M NaCl; 0.1% Tween 20; 50 mM Tris, pH 8.0) with 3% bovine serum albumin (BSA). The immunoreaction with the specific antibodies (Table S1) was detected by horseradish peroxidase-conjugated secondary antibodies followed by enhanced chemiluminescence (GE Healthcare).

The test system of experiment [2] is Stat5. In words: Stat5 phosphorylation in CWR22Rv1 cells (IP/immunoblot). It counts as cell-based, human. Conditions: 4 days. The method, then:
as §1, §2, §3

For experiment [3], the target named is T1, Stat5 (Homo sapiens, UniProt P42229).
T1 construct: expressed in transfected cells; host or cells: CWR22Rv1
T1 sequence (P42229 whole entry, species assumed): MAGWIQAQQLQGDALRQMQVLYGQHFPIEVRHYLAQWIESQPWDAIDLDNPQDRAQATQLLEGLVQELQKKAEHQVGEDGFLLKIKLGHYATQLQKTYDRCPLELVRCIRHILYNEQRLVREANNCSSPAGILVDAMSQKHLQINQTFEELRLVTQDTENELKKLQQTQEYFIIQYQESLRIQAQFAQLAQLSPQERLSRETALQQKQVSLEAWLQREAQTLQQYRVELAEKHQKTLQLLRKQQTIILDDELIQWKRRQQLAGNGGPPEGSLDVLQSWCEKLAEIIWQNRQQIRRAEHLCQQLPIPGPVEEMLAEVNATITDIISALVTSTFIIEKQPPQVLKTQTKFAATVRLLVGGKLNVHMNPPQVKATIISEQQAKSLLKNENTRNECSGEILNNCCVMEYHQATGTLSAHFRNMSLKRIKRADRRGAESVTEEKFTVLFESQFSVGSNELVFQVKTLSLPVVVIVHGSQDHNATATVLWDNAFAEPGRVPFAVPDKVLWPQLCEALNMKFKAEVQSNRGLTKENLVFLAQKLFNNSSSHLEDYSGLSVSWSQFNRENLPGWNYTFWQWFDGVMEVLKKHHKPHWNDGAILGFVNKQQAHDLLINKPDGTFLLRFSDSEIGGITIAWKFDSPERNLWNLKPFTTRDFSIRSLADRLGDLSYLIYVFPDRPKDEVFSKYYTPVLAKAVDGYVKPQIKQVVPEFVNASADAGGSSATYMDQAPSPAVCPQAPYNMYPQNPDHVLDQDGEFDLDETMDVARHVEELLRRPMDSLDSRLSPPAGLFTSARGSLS
Kind of experiment: Native-gel-based Stat5 dimerization assay, CWR22Rv1 cells. It counts as cell-based. Conditions: 1 µM, 6 h, Prl (10 nM) stimulated CWR22Rv1 cells, STAT5A-eYFP. The source says: Having established that IST5 and IST5-M both interrupt phosphorylation of Stat5, we next investigated the potency of IST5-M vs. IST5 in suppressing dimerization of Stat5 in PC cells. First, we performed a native Polyacrylamide Gel Electrophoresis (PAGE) based Stat5 dimerization assay established originally by Fahrenkamp et al., where CWR22Rv1 cells were transfected with STAT5A-eYFP (Stat5 wild type), STAT5A-N642H-eYFP (constitutive activated Stat5 by N642H mutation, as a positive control) or STAT3-eYFP (Stat3 wild type, as a negative control) constructs for 3 days (Figure 5A). CWR22Rv1 cells were starved for 16 h, pretreated with vanadate (1 mM) for 2 h, followed by treatment with vehicle, IST5 or IST5-M (1 µM) for 6 h and stimulation with Prl (10 nM) for 1 h.
Figure 5 Both IST5 and IST5-M suppress dimerization of Stat5 with similar efficacies in prostate cancer cells. (A), IST5 and IST5-M inhibit equally potently dimerization of Stat5 in native-gel-based Stat5 dimerization assay. […] Dimerization of Stat5 was analyzed by detection of the eYFP fluorescence of the native Coomassie gel. […] (E), differences in posttranslational modifications were detected between native and recombinant STAT5a using mass spectrometry. Native STAT5a from CWR22Rv1 cells and recombinant STAT5a from E. coli were gel-purified, digested using trypsin, and analyzed by bottom-up mass spectrometry. […]

Experiment [4] deals with Stat5. On the set-up: method as in PMID 31548294. Conditions: patients treated with enzalutamide (median 6 months); cited from earlier work.

`OCC1OC(n2cnc3c(NCc4ccccc4)ncnc32)C(O)C1O` (stereo not drawn) [IST5-M]: the “inhibition of Stat5 phosphorylation” value with Stat5 [1] (2 µM, K562 cells) was 75–90%; in the experiment on Stat5 [2] (2 µM, CWR22Rv1 cells) it was 60–75%. Besides, the IC50 is about 1100 nM in the experiment with Stat5 [1] (read-out: IC50, inhibition of Stat5 phosphorylation, K562 CML cells) and about 1300 nM in the experiment with Stat5 [2] (read-out: IC50, inhibition of Stat5 phosphorylation, CWR22Rv1 PC cells). Also, at Stat5 [3], the “inhibition of Stat5 dimerization” value is reported as “inhibited robustly”.
As to `CNC(=O)c1ccc(N2C(=S)N(c3ccc(C#N)c(C(F)(F)F)c3)C(=O)C2(C)C)cc1F` [enzalutamide], in the experiment on Stat5 [4], the “PC biopsies with significantly elevated levels of Stat5 activation” value is reported as 10/10.
